Measurements as given in patent US6562872B1, “Emulsion of perfluoroorganic compounds for medical purposes, a process for the preparation thereof and methods for treating and preventing diseases with the use thereof” (Otkrytoe Aktsionernoe Obschestvo Naucho-Proizvodstven-Naya …, priority 2001, dated 2003).
In brackets after ≈: the same amount, converted by molar mass.

Assays:
[1] = Solubility of PFOCs in olive oil lipids; assay type: physicochemical; details: oil or lipid, 37° C.
[2] = Solubility of PFOCs in membranes of erythrocytes; assay type: physicochemical; details: 37° C.

SMILES	solubility [1] [mM]	Solubility in membranes [2]
FC1(F)C(F)(F)C(F)(F)C2(F)C(F)(F)C(F)(F)C(F)(F)C(F)(F)C2(F)C1(F)F (centres unmarked) [Perfluorodecalin (PFD), perfluorodecalin]	26 (≈ 12000 µg/mL)	2.0 ml per kg of dry membranes
FC(F)(F)C(F)(F)C(F)(F)C(F)(F)N(C(F)(F)C(F)(F)C(F)(F)C(F)(F)F)C(F)(F)C(F)(F)C(F)(F)C(F)(F)F [Perfluorotributylamine]	1.2 (≈ 805 µg/mL)	0.08 ml per kg of dry membranes
FC(F)(F)C(F)(F)C(F)(F)N(C(F)(F)C(F)(F)C(F)(F)F)C(F)(F)C(F)(F)C(F)(F)F [Perfluorotripropylamine]	5.1 (≈ 2660 µg/mL)	0.3 ml per kg of dry membranes
FC(F)(F)C1(F)C(F)(F)C(F)(F)C(F)(N2C(F)(F)C(F)(F)C(F)(F)C(F)(F)C2(F)F)C(F)(F)C1(F)F (centres unmarked) [perfluoro-N-(4-methylcyclohexyl)-piperidine]	7.6 (≈ 4520 µg/mL)	0.5 ml per kg of dry membranes
